In brackets after ≈: the same amount, converted by molar mass. Activity calls are given as the source filed them. No cut-off for these calls is given here.
Key:
Saccharomyces cerevisiae [1] = assay: Antifungal activity against Saccharomyces cerevisiae MTCC 170 at 4 mg/ml after 24 hr by agar well diffusion assay; format: functional; conditions: for zone of inhibition at 4000 µg/mL: MTCC 170, 24 h, read-out: DIZ
Candida albicans [2] = assay: Antifungal activity against Candida albicans MTCC 227 at 4 mg/ml after 24 hr by agar well diffusion assay; format: functional; conditions: for zone of inhibition at 4000 µg/mL: MTCC 227, 24 h, read-out: DIZ
Candida albicans [3] = assay: Antifungal activity against Candida albicans MTCC 227 after 24 hr by modified agar well diffusion assay; format: functional
Rattus norvegicus [4] = assay: Anti-inflammatory activity in Rattus norvegicus Wistar albino (rat) assessed as inhibition of carrageenan-induced paw edema at 50 mg/kg, po administered 30 min prior to carrageenan-challenge measured at 3 hr by plethysmometric analysis relative to control; format: functional
Staphylococcus aureus [5] = assay: Antibacterial activity against Staphylococcus aureus MTCC 96 at 4 mg/ml after 24 hr by agar well diffusion assay; format: functional; conditions: MTCC 96, 24 h, read-out: DIZ
Rattus norvegicus [6] = assay: Anti-inflammatory activity in Rattus norvegicus Wistar albino (rat) assessed as inhibition of carrageenan-induced paw edema at 50 mg/kg, po administered 30 min prior to carrageenan-challenge measured at 4 hr by plethysmometric analysis relative to control; format: functional
Staphylococcus aureus [7] = assay: Antibacterial activity against Staphylococcus aureus MTCC 96 after 24 hr by modified agar well diffusion assay; format: functional; conditions: MTCC 96, 24 h
Bacillus subtilis [8] = assay: Antibacterial activity against Bacillus subtilis MTCC 121 at 4 mg/ml after 24 hr by agar well diffusion assay; format: functional; conditions: MTCC 121, 24 h, read-out: DIZ
Pseudomonas aeruginosa = assay: Antibacterial activity against Pseudomonas aeruginosa MTCC 741 at 4 mg/ml after 24 hr by agar well diffusion assay; format: functional, organism-based
Escherichia coli = assay: Antibacterial activity against Escherichia coli MTCC 1652 at 4 mg/ml after 24 hr by agar well diffusion assay; format: functional, organism-based
Bacillus subtilis [9] = assay: Antibacterial activity against Bacillus subtilis MTCC 121 after 24 hr by modified agar well diffusion assay; format: functional; conditions: MTCC 121, 24 h
Saccharomyces cerevisiae [10] = assay: Antifungal activity against Saccharomyces cerevisiae MTCC 170 after 24 hr by modified agar well diffusion assay; format: functional
Rattus norvegicus [11] = assay: Anti-inflammatory activity in Rattus norvegicus Wistar albino (rat) assessed as inhibition of carrageenan-induced paw edema at 50 mg/kg, po administered 30 min prior to carrageenan-challenge measured at 2 hr by plethysmometric analysis relative to control; format: functional
Rattus norvegicus [12] = assay: Anti-inflammatory activity in Rattus norvegicus Wistar albino (rat) assessed as inhibition of carrageenan-induced paw edema at 50 mg/kg, po administered 30 min prior to carrageenan-challenge measured at 1 hr by plethysmometric analysis relative to control; format: functional
Rattus norvegicus [13] = assay: Anti-inflammatory activity in Rattus norvegicus Wistar albino (rat) assessed as inhibition of carrageenan-induced paw edema at 4 mg/kg, ip administered 30 min prior to carrageenan-challenge measured at 4 hr by plethysmometric analysis relative to control; format: functional; conditions: route intraperitoneal
Rattus norvegicus [14] = assay: Anti-inflammatory activity in Rattus norvegicus Wistar albino (rat) assessed as inhibition of carrageenan-induced paw edema at 4 mg/kg, ip administered 30 min prior to carrageenan-challenge measured at 2 hr by plethysmometric analysis relative to control; format: functional; conditions: route intraperitoneal
Rattus norvegicus [15] = assay: Anti-inflammatory activity in Rattus norvegicus Wistar albino (rat) assessed as inhibition of carrageenan-induced paw edema at 4 mg/kg, ip administered 30 min prior to carrageenan-challenge measured at 3 hr by plethysmometric analysis relative to control; format: functional; conditions: route intraperitoneal
Rattus norvegicus [16] = assay: Anti-inflammatory activity in Rattus norvegicus Wistar albino (rat) assessed as inhibition of carrageenan-induced paw edema at 4 mg/kg, ip administered 30 min prior to carrageenan-challenge measured at 1 hr by plethysmometric analysis relative to control; format: functional; conditions: route intraperitoneal

Structure (SMILES)	MIC (Candida albicans [3]; MTCC 227, 24 h) [µg/mL]	MIC (Staphylococcus aureus [7]) [µg/mL]	MIC (Bacillus subtilis [9]) [µg/mL]	MIC (Saccharomyces cerevisiae [10]; MTCC 170, 24 h) [µg/mL]	MIC (Candida albicans [3])	MIC (Saccharomyces cerevisiae [10])	zone of inhibition at 4000 µg/mL (Saccharomyces cerevisiae [1]) [mm]	zone of inhibition at 4000 µg/mL (Candida albicans [2]) [mm]	inhibition in vivo at 50 mg/kg (Rattus norvegicus [4]) [%]	zone of inhibition at 4000 µg/mL (Staphylococcus aureus [5]) [mm]	inhibition in vivo at 50 mg/kg (Rattus norvegicus [6]) [%]	zone of inhibition at 4000 µg/mL (Bacillus subtilis [8]) [mm]	Activity (Pseudomonas aeruginosa)	Activity (Escherichia coli)	inhibition in vivo at 50 mg/kg (Rattus norvegicus [11]) [%]	inhibition in vivo at 50 mg/kg (Rattus norvegicus [12]) [%]	diameter of the inhibition zone (DIZ) (Saccharomyces cerevisiae [1])	diameter of the inhibition zone (DIZ) (Candida albicans [2])	further results
COc1ccc(OC)c(C2CC(c3ccc(Cl)cc3)=NN2c2ccc(S(N)(=O)=O)cc2)c1 (centres undefined)	128 (≈ 271 µM)	128 (≈ 271 µM)	64 (≈ 136 µM)	32 (≈ 67.8 µM)	–	–	17.6	14.3	58.9	15.3	45.4	18.6	inactive	inactive	48.8	14.5	–	–	–
COc1ccc2c(c1)c(CC(=O)O)c(C)n2C(=O)c1ccc(Cl)cc1 [INDOMETHACIN]	–	–	–	–	–	–	–	–	–	–	–	–	–	–	–	–	–	–	inhibition in vivo at 4 mg/kg (Rattus norvegicus [13]): 74.7%; inhibition in vivo at 4 mg/kg (Rattus norvegicus [14]): 81.9%; inhibition in vivo at 4 mg/kg (Rattus norvegicus [15]): 77.2%; inhibition in vivo at 4 mg/kg (Rattus norvegicus [16]): 69.6%
COc1cc(OC)cc(C2CC(c3ccc(OC)cc3O)=NN2c2ccc(S(N)(=O)=O)cc2)c1 (centres undefined)	–	256 (≈ 529 µM)	256 (≈ 529 µM)	–	inactive	inactive	–	–	62.8	13.3	50	14.3	inactive	inactive	57.5	31.9	inactive	inactive	–
COc1cc(OC)cc(C2CC(c3ccc(F)cc3)=NN2c2ccc(S(N)(=O)=O)cc2)c1 (centres undefined)	–	> 256	256 (≈ 562 µM)	–	inactive	inactive	–	–	51.1	12.6	50	13.6	inactive	inactive	33.1	49.3	inactive	inactive	–
COc1ccc(C2CC(c3ccc(Cl)cc3)=NN2c2ccc(S(N)(=O)=O)cc2)c(OC)c1 (centres undefined)	128 (≈ 271 µM)	64 (≈ 136 µM)	64 (≈ 136 µM)	64 (≈ 136 µM)	–	–	16	13.6	57.2	18.3	32.9	19.3	inactive	inactive	48.8	43.5	–	–	–
O=C(O)c1cn(C2CC2)c2cc(N3CCNCC3)c(F)cc2c1=O [CIPROFLOXACIN]	–	5 (≈ 15.1 µM)	5 (≈ 15.1 µM)	–	–	–	–	–	–	26.6	–	24	–	–	–	–	–	–	–
COc1cccc(C2CC(c3ccc(Cl)cc3)=NN2c2ccc(S(N)(=O)=O)cc2)c1OC (centres undefined)	64 (≈ 136 µM)	256 (≈ 542 µM)	128 (≈ 271 µM)	32 (≈ 67.8 µM)	–	–	17.3	15.3	46.1	13.6	27.8	15	inactive	inactive	35.4	18.8	–	–	–

The next lines start with results.

MIC (Candida albicans [3]; MTCC 227, 24 h) [µg/mL]	MIC (Staphylococcus aureus [7]) [µg/mL]	MIC (Bacillus subtilis [9]) [µg/mL]	MIC (Saccharomyces cerevisiae [10]; MTCC 170, 24 h) [µg/mL]	MIC (Candida albicans [3])	MIC (Saccharomyces cerevisiae [10])	Structure (SMILES)	zone of inhibition at 4000 µg/mL (Saccharomyces cerevisiae [1]) [mm]	zone of inhibition at 4000 µg/mL (Candida albicans [2]) [mm]	inhibition in vivo at 50 mg/kg (Rattus norvegicus [4]) [%]	zone of inhibition at 4000 µg/mL (Staphylococcus aureus [5]) [mm]	inhibition in vivo at 50 mg/kg (Rattus norvegicus [6]) [%]	zone of inhibition at 4000 µg/mL (Bacillus subtilis [8]) [mm]	Activity (Pseudomonas aeruginosa)	Activity (Escherichia coli)	inhibition in vivo at 50 mg/kg (Rattus norvegicus [11]) [%]	inhibition in vivo at 50 mg/kg (Rattus norvegicus [12]) [%]	diameter of the inhibition zone (DIZ) (Saccharomyces cerevisiae [1])	diameter of the inhibition zone (DIZ) (Candida albicans [2])	further results
128 (≈ 265 µM)	64 (≈ 132 µM)	32 (≈ 66.2 µM)	64 (≈ 132 µM)	–	–	COc1ccc(C2=NN(c3ccc(S(N)(=O)=O)cc3)C(c3cccc(OC)c3OC)C2)c(O)c1 (centres undefined)	15.6	14.3	45	18.6	43.8	20.6	inactive	inactive	25.2	47.8	–	–	–
–	256 (≈ 562 µM)	128 (≈ 281 µM)	–	inactive	inactive	COc1ccc(C2CC(c3ccc(F)cc3)=NN2c2ccc(S(N)(=O)=O)cc2)cc1OC (centres undefined)	–	–	62.8	14	53.1	15.3	inactive	inactive	53.5	62.3	inactive	inactive	–
100 (≈ 108 µM)	–	–	100 (≈ 108 µM)	–	–	C[C@@H]1[C@H](O)[C@@H](C)/C=C/C=C/C=C/C=C/C=C/C=C/C=C/[C@H](O[C@@H]2O[C@H](C)[C@@H](O)[C@H](N)[C@@H]2O)C[C@@H]2O[C@](O)(C[C@@H](O)C[C@@H](O)[C@H](O)CC[C@@H](O)C[C@@H](O)CC(=O)O[C@H]1C)C[C@H](O)[C@H]2C(=O)O [AMPHOTERICIN B]	13.6	14.3	–	–	–	–	–	–	–	–	–	–	–
–	256 (≈ 562 µM)	128 (≈ 281 µM)	–	inactive	inactive	COc1ccc(OC)c(C2CC(c3ccc(F)cc3)=NN2c2ccc(S(N)(=O)=O)cc2)c1 (centres undefined)	–	–	48.3	13.6	41.7	15	inactive	inactive	30.7	50.7	inactive	inactive	–
128 (≈ 281 µM)	128 (≈ 281 µM)	64 (≈ 141 µM)	64 (≈ 141 µM)	–	–	COc1cccc(C2CC(c3ccc(F)cc3)=NN2c2ccc(S(N)(=O)=O)cc2)c1OC (centres undefined)	15.6	13.6	53.8	17.6	51.5	18.3	inactive	inactive	40.1	59.4	–	–	–
–	128 (≈ 265 µM)	64 (≈ 132 µM)	–	inactive	inactive	COc1ccc(C2=NN(c3ccc(S(N)(=O)=O)cc3)C(c3ccc(OC)cc3OC)C2)c(O)c1 (centres undefined)	–	–	40.6	15.6	37.1	18.6	inactive	inactive	16.5	33.3	inactive	inactive	–
–	128 (≈ 281 µM)	128 (≈ 281 µM)	–	inactive	inactive	COc1ccc(C2CC(c3ccc(F)cc3)=NN2c2ccc(S(N)(=O)=O)cc2)c(OC)c1 (centres undefined)	–	–	47.7	15.3	47.9	16.3	inactive	inactive	35.4	63.7	inactive	inactive	–
–	256 (≈ 542 µM)	128 (≈ 271 µM)	–	inactive	inactive	COc1ccc(C2CC(c3ccc(Cl)cc3)=NN2c2ccc(S(N)(=O)=O)cc2)cc1OC (centres undefined)	–	–	68.3	13.6	49.5	17.3	inactive	inactive	64.6	57.9	inactive	inactive	–
> 256	> 256	> 256	64 (≈ 136 µM)	–	–	COc1cc(OC)cc(C2CC(c3ccc(Cl)cc3)=NN2c2ccc(S(N)(=O)=O)cc2)c1 (centres undefined)	16.3	12.6	46.1	12	46.4	13.6	inactive	inactive	26.8	11.6	–	–	–

— ChEMBL document CHEMBL3044986, “Synthesis of 1-(4-aminosulfonylphenyl)-3,5-diarylpyrazoline derivatives as potent antiinflammatory and antimicrobial agents” (2012)
